Where a name gives a salt, the structure may show the parent alone.
Test system: not given
Assay: not given
Conditions: not given
A melting point of 180 to 191 °C was found for `CN(C)c1cccc(OCCn2ccnc(N3CCNCC3)c2=O)c1` (as salt: fumarate) [Example 20, 1-{2-[3-(N,N-Dimethylamino)phenoxy]ethyl}-3-(1-piperazinyl)-pyrazin-2(1H)-one] in this work. A melting point of 105 to 108 °C was found for `O=c1c(N2CCNCC2)nccn1CCOc1ccc([N+](=O)[O-])cc1F` (as salt: hydrochloride) [Example 1, 1-[2-(2-Fluoro-4-nitrophenoxy)ethyl]-3-(1-piperazinyl)-2(1H)-pyrazinone] in this work. A melting point of 193 to 195 °C was found for `O=c1c(N2CCNCC2)nccn1CCOc1cc(F)c(F)cc1F` (as salt: hydrochloride) [Example 3, 3-(1-Piperazinyl)-1-[2-(2,4,5-trifluorophenoxy)ethyl]-2(1H)-pyrazinone] in this work. With `O=c1c(N2CCNCC2)nccn1CCOc1c(F)c(F)cc(F)c1F` (as salt: hydrochloride) [Example 4, 3-(1-Piperazinyl)-1-[2-(2,3,5,6-tetrafluorophenoxy)ethyl]-2(1H)-pyrazinone] the melting point was 196 to 198 °C (dec.). A melting point of 174 to 176 °C was found for `O=c1c(N2CCNCC2)nccn1CCOc1noc2ccccc12` (as salt: hydrochloride) [Example 9, 1-[2-(1,2-Benzisoxazol-3-yloxy)ethyl]-3-(1-piperazinyl)-2(1H)-pyrazinone] in this work. A melting point of 214 to 214.5 °C was found for `O=c1c(N2CCN(Cc3ccccc3)CC2)nccn1CCOc1cc(F)c(F)cc1F` (as salt: hydrochloride) [Example 63, 3-(4-Benzylpiperazin-1-yl)-1-[2-(2,4,5-trifluorophenoxy)ethyl]pyrazin-2(1H)-one] in this work. A melting point of 158 to 160 °C was found for `C=CCc1ccc(OCCn2ccnc(N3CCNCC3)c2=O)c(OC)c1` (as salt: maleate) [Example 65, 1-[2-(4-Allyl-2-methoxyphenoxy)ethyl]-3-piperazin-1-ylpyrazin-2(1H)-one] in this work. In the case of `O=c1c(N2CCNCC2)nccn1CCCCOc1cc(F)c(F)cc1F` (as salt: trifluoroacetate) [Example 58, 1-[4-(2,4,5-Trifluorophenoxy)butyl]-3-(1-piperazinyl)-2(1H)-pyrazinone], the melting point is reported as 113.4 to 116.6 °C (dec.). For `O=c1c(N2CCNCC2)nccn1CCCOc1cc(F)c(F)cc1F` (as salt: trifluoroacetate) [Example 59, 1-[3-(2,4,5-Trifluorophenoxy)propyl]-3-(1-piperazinyl)-2(1H)-pyrazinone], the melting point was 100.3 to 100.9 °C (dec.). A melting point of 137 to 139 °C was found for `CC(c1ccccc1)N1CCN(c2nccn(CCOc3cc(F)c(F)cc3F)c2=O)CC1` (racemic) (as salt: hydrochloride) [Example 60, 3-[4-(1-Phenylethyl)piperazin-1-yl]-1-[2-(2,4,5-trifluorophenoxy)ethyl]pyrazin-2(1H)-one] in this work. A melting point of 49 to 52 °C was found for `N#Cc1cccc(OCCn2ccnc(N3CCNCC3)c2=O)c1` [Example 7, 1-[2-(3-Cyanophenoxy)ethyl]-3-(1-piperazinyl)-2(1H)-pyrazinone] in this work. A melting point of 171 °C was found for `O=c1c(N2CCNCC2)nccn1CCOc1cccc([N+](=O)[O-])c1` [Example 23, 1-[2-(3-Nitrophenoxy)ethyl]-3-(1-piperazinyl)-2(1H)-pyrazinone] in this work. A melting point of 69 to 70 °C was found for `O=C(c1ccccc1)c1cccc(OCCn2ccnc(N3CCNCC3)c2=O)c1` [Example 24, 1-[2-(3-Benzoylphenoxy)ethyl]-3-(1-piperazinyl)-2(1H)-pyrazinone] in this work. A melting point of 119 to 121 °C was found for `O=c1c(N2CCNCC2)nccn1CCOc1cc(F)cc(F)c1` [Example 25, 1-[2-(3,5-Difluorophenoxy)ethyl]-3-(1-piperazinyl)-2(1H)-pyrazinone] in this work.

Target: T1, human 5-HT2A receptor (Homo sapiens, UniProt P28223)
T1 construct: expressed in transfected cells
T1 sequence (P28223 whole entry): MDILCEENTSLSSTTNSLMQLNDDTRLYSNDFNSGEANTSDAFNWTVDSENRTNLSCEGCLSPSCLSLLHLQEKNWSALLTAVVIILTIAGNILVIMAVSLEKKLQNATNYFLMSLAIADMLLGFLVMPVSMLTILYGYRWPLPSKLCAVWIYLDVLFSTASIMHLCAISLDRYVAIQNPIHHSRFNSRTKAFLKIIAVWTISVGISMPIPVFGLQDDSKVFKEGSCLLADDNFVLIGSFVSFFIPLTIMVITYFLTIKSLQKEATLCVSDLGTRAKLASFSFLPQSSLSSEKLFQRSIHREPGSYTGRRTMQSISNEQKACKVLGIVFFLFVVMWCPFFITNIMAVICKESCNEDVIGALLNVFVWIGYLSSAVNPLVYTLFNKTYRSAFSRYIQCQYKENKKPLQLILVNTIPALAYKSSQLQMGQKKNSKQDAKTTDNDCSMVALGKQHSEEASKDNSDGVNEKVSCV
Assay: 5-HT2A receptor affinity assay: competition with 3H-labeled LSD on membranes of transfected CHO cells
Conditions: displacement of 3H-LSD; membranes from transfected CHO cell line stably expressing the human 5-HT2A receptor; non-specific binding defined with mianserin (5 μM)
Protocol: The 5-HT2A receptor affinity of compounds in the Examples was determined in competition experiments, where the ability of each compound in serial dilution to displace ^3H-labeled lysergic diethyl amide (LSD), bound to membranes prepared from a transfected CHO cell line stably expressing the human 5-HT2A receptor protein, was measured after rapid filtration through glass fiber filters. Non-specific binding was defined using mianserin (5 μM). The 5-HT2A receptor affinity values are expressed as Ki values.
A Ki of 152 nM was found for `O=c1ccc2ccc(OCCn3ccnc(N4CCNCC4)c3=O)cc2o1` [Example 2, 1-{2-[(2-Oxo-2H-chromen-7-yl)oxy]ethyl}-3-(1-piperazinyl)-2(1H)-pyrazinone] in this work. A Ki of 2.2 nM was found for `O=c1c(N2CCNCC2)nccn1CCOc1cc(F)c(F)cc1F` [Example 3, 3-(1-Piperazinyl)-1-[2-(2,4,5-trifluorophenoxy)ethyl]-2(1H)-pyrazinone] in this work. A Ki of 2.5 nM was found for `CCCCOc1cccc(OCCn2ccnc(N3CCNCC3)c2=O)c1` [Example 11, 1-[2-(3-n-Butyloxyphenoxy)ethyl]-3-(1-piperazinyl)-2(1H)-pyrazinone] in this work. A Ki of 29 nM was found for `O=c1c(N2CCNCC2)nccn1CCOc1ccc(F)c(F)c1F` [Example 13, 3-(1-Piperazinyl)-1-[2-(2,3,4-trifluorophenoxy)ethyl]-2(1H)-pyrazinone] in this work. A Ki of 13 nM was found for `O=c1c(N2CCNCC2)nccn1CCOc1cccc([N+](=O)[O-])c1` [Example 23, 1-[2-(3-Nitrophenoxy)ethyl]-3-(1-piperazinyl)-2(1H)-pyrazinone] in this work. A Ki of 3.6 nM was found for `O=C(c1ccccc1)c1cccc(OCCn2ccnc(N3CCNCC3)c2=O)c1` [Example 24, 1-[2-(3-Benzoylphenoxy)ethyl]-3-(1-piperazinyl)-2(1H)-pyrazinone] in this work. A Ki of 8 nM was found for `O=c1c(N2CCNCC2)nccn1CCOc1ccc(C(F)(F)F)cc1` [Example 29, 1-[2-(4-Trifluoromethylphenoxy)ethyl]-3-(1-piperazinyl)-2(1H)-pyrazinone] in this work. A Ki of 4.4 nM was found for `O=c1c(N2CCNCC2)nccn1CCOc1ccc(Oc2ccccc2)cc1` [Example 31, 1-[2-{4-Phenoxy-(phenoxy)}ethyl]-3-(1-piperazinyl)-2(1H)-pyrazinone] in this work. A Ki of 0.15 nM was found for `O=c1c(N2CCN(CCc3ccccc3)CC2)nccn1CCOc1cc(F)c(F)cc1F` [Example 62, 3-[4-(2-Phenylethyl)piperazin-1-yl-]1-[2-(2,4,5-trifluorophenoxy)ethyl]pyrazin-2(1H)-one] in this work. A Ki of 1.4 nM was found for `O=c1c(N2CCN(Cc3ccccc3)CC2)nccn1CCOc1cc(F)c(F)cc1F` [Example 63, 3-(4-Benzylpiperazin-1-yl)-1-[2-(2,4,5-trifluorophenoxy)ethyl]pyrazin-2(1H)-one] in this work.

— patent publication US7244722B2, “Amino-substituted 1H-pyrazin-2-ones and 1H-quinoxalin-2-ones” (Biovitrum AB, priority 2002, dated 2007)
